Results reported in PubChem BioAssay (NCI).
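Tested at 5 concentrations; 48 h exposure; 96-well plates; endpoints linearly interpolated, else capped at highest concentration. TGI denotes the concentration required for complete inhibition of growth.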 Calls of active or inactive are those of the source. Cut-off read from the data, not from the text of the source: active = GI50 below about 0.43 µM; inactive = the rest.

Experiments:
Test in all cases: NCI anticancer screen, dose series, 48 h
786-0 renal = tested on: 786-0 renal
A498 renal = tested on: A498 renal
A549 NSCLC = tested on: A549 NSCLC
ACHN renal = tested on: ACHN renal
BT-549 breast = tested on: BT-549 breast
CAKI-1 renal = tested on: CAKI-1 renal
CCRF-CEM leukemia = tested on: CCRF-CEM leukemia
COLO 205 colon = tested on: COLO 205 colon
DU-145 prostate = tested on: DU-145 prostate
EKVX NSCLC = tested on: EKVX NSCLC
HCC-2998 colon = tested on: HCC-2998 colon
HCT-116 colon = tested on: HCT-116 colon
HCT-15 colon = tested on: HCT-15 colon
HL-60(TB) leukemia = tested on: HL-60(TB) leukemia
HOP-92 NSCLC = tested on: HOP-92 NSCLC
HS 578T breast = tested on: HS 578T breast
IGROV1 ovarian = tested on: IGROV1 ovarian
K-562 leukemia = tested on: K-562 leukemia
KM12 colon = tested on: KM12 colon
LOX IMVI melanoma = tested on: LOX IMVI melanoma
M14 melanoma = tested on: M14 melanoma
MALME-3M melanoma = tested on: MALME-3M melanoma
MCF7 breast = tested on: MCF7 breast
MDA-MB-231 breast = tested on: MDA-MB-231 breast
MDA-MB-435 = tested on: MDA-MB-435
MDA-N = tested on: MDA-N
MOLT-4 leukemia = tested on: MOLT-4 leukemia
NCI-H23 lung = tested on: NCI-H23 lung
NCI-H460 lung = tested on: NCI-H460 lung
NCI-H522 lung = tested on: NCI-H522 lung
NCI/ADR-RES ovarian = tested on: NCI/ADR-RES ovarian
OVCAR-3 ovarian = tested on: OVCAR-3 ovarian
OVCAR-4 ovarian = tested on: OVCAR-4 ovarian
OVCAR-5 ovarian = tested on: OVCAR-5 ovarian
OVCAR-8 ovarian = tested on: OVCAR-8 ovarian
RPMI-8226 leukemia = tested on: RPMI-8226 leukemia
SF-268 CNS = tested on: SF-268 CNS
SF-295 CNS = tested on: SF-295 CNS
SF-539 CNS = tested on: SF-539 CNS
SK-MEL-2 melanoma = tested on: SK-MEL-2 melanoma
SK-MEL-28 melanoma = tested on: SK-MEL-28 melanoma
SK-OV-3 ovarian = tested on: SK-OV-3 ovarian
SN12C renal = tested on: SN12C renal
SNB-19 CNS = tested on: SNB-19 CNS
SNB-75 CNS = tested on: SNB-75 CNS
SR leukemia = tested on: SR leukemia
SW-620 colon = tested on: SW-620 colon
T-47D breast = tested on: T-47D breast
TK-10 renal = tested on: TK-10 renal
U251 CNS = tested on: U251 CNS
UACC-257 melanoma = tested on: UACC-257 melanoma
UACC-62 melanoma = tested on: UACC-62 melanoma
UO-31 renal = tested on: UO-31 renal
HOP-62 NSCLC = tested on: HOP-62 NSCLC
NCI-H226 lung = tested on: NCI-H226 lung
PC-3 prostate = tested on: PC-3 prostate
RXF 393 renal = tested on: RXF 393 renal
SK-MEL-5 melanoma = tested on: SK-MEL-5 melanoma
HT29 colon = tested on: HT29 colon

## COC(=O)CCCC(=O)NC1=C(Nc2ccc(OC)cc2)C(=O)c2ccccc2C1=O
786-0 renal
  TGI: > 100 µM
A498 renal
  TGI: 84.4 µM
A549 NSCLC
  TGI: 42.7 µM
ACHN renal
  TGI: 91.5 µM
BT-549 breast
  TGI: 35.4 µM
CAKI-1 renal
  TGI: > 100 µM
CCRF-CEM leukemia
  TGI: 58.2 µM
COLO 205 colon
  TGI: > 100 µM
DU-145 prostate
  TGI: 31.7 µM
EKVX NSCLC
  TGI: 51.3 µM
HCC-2998 colon
  TGI: > 100 µM
HCT-116 colon
  TGI: 43.2 µM
HCT-15 colon
  TGI: 89 µM
HL-60(TB) leukemia
  TGI: 54.5 µM
HOP-92 NSCLC
  TGI: > 100 µM
HS 578T breast
  TGI: 57.8 µM
IGROV1 ovarian
  TGI: 36.8 µM
K-562 leukemia
  TGI: 70.1 µM
KM12 colon
  TGI: > 100 µM
LOX IMVI melanoma
  TGI: 92.8 µM
M14 melanoma
  TGI: 33.7 µM
MALME-3M melanoma
  TGI: 13.5 µM
MCF7 breast
  TGI: 35.4 µM
MDA-MB-231 breast
  TGI: 82.9 µM
MDA-MB-435
  TGI: 32.1 µM
MDA-N
  TGI: 41.2 µM
MOLT-4 leukemia
  TGI: 60.4 µM
NCI-H23 lung
  TGI: 51.5 µM
NCI-H460 lung
  TGI: 36.6 µM
NCI-H522 lung
  TGI: > 100 µM
NCI/ADR-RES ovarian
  TGI: 71.1 µM
OVCAR-3 ovarian
  TGI: 31.3 µM
OVCAR-4 ovarian
  TGI: 34.6 µM
OVCAR-5 ovarian
  TGI: 33.2 µM
OVCAR-8 ovarian
  TGI: > 100 µM
RPMI-8226 leukemia
  TGI: > 100 µM
SF-268 CNS
  TGI: > 100 µM
SF-295 CNS
  TGI: 88.4 µM
SF-539 CNS
  TGI: 36.1 µM
SK-MEL-2 melanoma
  TGI: 37.8 µM
SK-MEL-28 melanoma
  TGI: 44.9 µM
SK-OV-3 ovarian
  TGI: 82.6 µM
SN12C renal
  TGI: 74.2 µM
SNB-19 CNS
  TGI: > 100 µM
SNB-75 CNS
  TGI: 65.6 µM
SR leukemia
  TGI: > 100 µM
SW-620 colon
  TGI: > 100 µM
T-47D breast
  TGI: > 100 µM
TK-10 renal
  TGI: > 100 µM
U251 CNS
  TGI: 80.9 µM
UACC-257 melanoma
  TGI: 36.1 µM
UACC-62 melanoma
  TGI: 25.3 µM
UO-31 renal
  TGI: > 100 µM

## COc1ccc2c(c1)CC[C@@H]1[C@@H]2CC[C@]2(C)C(=O)/C(=C/c3ccc(C#N)cc3)C[C@@H]12
786-0 renal
  TGI: > 100 µM
A498 renal
  TGI: > 100 µM
A549 NSCLC
  TGI: > 100 µM
ACHN renal
  TGI: > 100 µM
BT-549 breast
  TGI: > 100 µM
CAKI-1 renal
  TGI: > 100 µM
CCRF-CEM leukemia
  TGI: > 100 µM
COLO 205 colon
  TGI: > 100 µM
DU-145 prostate
  TGI: > 100 µM
EKVX NSCLC
  TGI: > 100 µM
HCC-2998 colon
  TGI: > 100 µM
HCT-116 colon
  TGI: > 100 µM
HCT-15 colon
  TGI: > 100 µM
HOP-62 NSCLC
  TGI: > 100 µM
IGROV1 ovarian
  TGI: > 100 µM
K-562 leukemia
  TGI: > 100 µM
KM12 colon
  TGI: > 100 µM
LOX IMVI melanoma
  TGI: > 100 µM
M14 melanoma
  TGI: > 100 µM
MALME-3M melanoma
  TGI: > 100 µM
MCF7 breast
  TGI: > 100 µM
MDA-MB-231 breast
  TGI: > 100 µM
MDA-MB-435
  TGI: > 100 µM
MDA-N
  TGI: > 100 µM
MOLT-4 leukemia
  TGI: > 100 µM
NCI-H226 lung
  TGI: > 100 µM
NCI-H23 lung
  TGI: > 100 µM
NCI-H460 lung
  TGI: > 100 µM
NCI-H522 lung
  TGI: > 100 µM
NCI/ADR-RES ovarian
  TGI: > 100 µM
OVCAR-4 ovarian
  TGI: > 100 µM
OVCAR-5 ovarian
  TGI: > 100 µM
OVCAR-8 ovarian
  TGI: > 100 µM
PC-3 prostate
  TGI: > 100 µM
RPMI-8226 leukemia
  TGI: > 100 µM
RXF 393 renal
  TGI: > 100 µM
SF-268 CNS
  TGI: > 100 µM
SF-295 CNS
  TGI: > 100 µM
SF-539 CNS
  TGI: > 100 µM
SK-MEL-2 melanoma
  TGI: > 100 µM
SK-MEL-28 melanoma
  TGI: > 100 µM
SK-MEL-5 melanoma
  TGI: > 100 µM
SK-OV-3 ovarian
  TGI: > 100 µM
SN12C renal
  TGI: > 100 µM
SNB-19 CNS
  TGI: > 100 µM
SNB-75 CNS
  TGI: > 100 µM
SR leukemia
  TGI: > 100 µM
SW-620 colon
  TGI: > 100 µM
T-47D breast
  TGI: > 100 µM
TK-10 renal
  TGI: > 100 µM
U251 CNS
  TGI: > 100 µM
UACC-257 melanoma
  TGI: > 100 µM
UACC-62 melanoma
  TGI: > 100 µM
UO-31 renal
  TGI: > 100 µM

## CCOC(=O)CCC(C(=O)OCC)n1nnc2ccc(Nc3c(C)[n+]([O-])c4ccc(Cl)cc4[n+]3[O-])cc21 (stereo not given)
786-0 renal
  TGI: > 100 µM
A498 renal
  TGI: > 100 µM
A549 NSCLC
  TGI: > 100 µM
ACHN renal
  TGI: > 100 µM
BT-549 breast
  TGI: > 100 µM
CAKI-1 renal
  TGI: > 100 µM
CCRF-CEM leukemia
  TGI: > 100 µM
COLO 205 colon
  TGI: > 100 µM
DU-145 prostate
  TGI: > 100 µM
EKVX NSCLC
  TGI: 69.3 µM
HCT-116 colon
  TGI: > 100 µM
HCT-15 colon
  TGI: > 100 µM
HL-60(TB) leukemia
  TGI: > 100 µM
HOP-62 NSCLC
  TGI: > 100 µM
HOP-92 NSCLC
  TGI: > 100 µM
HS 578T breast
  TGI: > 100 µM
HT29 colon
  TGI: > 100 µM
IGROV1 ovarian
  TGI: > 100 µM
K-562 leukemia
  TGI: > 100 µM
KM12 colon
  TGI: > 100 µM
LOX IMVI melanoma
  TGI: > 100 µM
M14 melanoma
  TGI: > 100 µM
MALME-3M melanoma
  TGI: > 100 µM
MCF7 breast
  TGI: 50.4 µM
MDA-MB-435
  TGI: > 100 µM
MDA-N
  TGI: > 100 µM
MOLT-4 leukemia
  TGI: > 100 µM
NCI-H226 lung
  TGI: 83.7 µM
NCI-H23 lung
  TGI: > 100 µM
NCI-H460 lung
  TGI: > 100 µM
NCI-H522 lung
  TGI: > 100 µM
NCI/ADR-RES ovarian
  TGI: > 100 µM
OVCAR-3 ovarian
  TGI: > 100 µM
OVCAR-4 ovarian
  TGI: > 100 µM
OVCAR-5 ovarian
  TGI: > 100 µM
OVCAR-8 ovarian
  TGI: > 100 µM
PC-3 prostate
  TGI: > 100 µM
RPMI-8226 leukemia
  TGI: 88.3 µM
RXF 393 renal
  TGI: > 100 µM
SF-268 CNS
  TGI: > 100 µM
SF-295 CNS
  TGI: > 100 µM
SF-539 CNS
  TGI: > 100 µM
SK-MEL-2 melanoma
  TGI: > 100 µM
SK-MEL-5 melanoma
  TGI: > 100 µM
SK-OV-3 ovarian
  TGI: > 100 µM
SN12C renal
  TGI: > 100 µM
SNB-19 CNS
  TGI: > 100 µM
SNB-75 CNS
  TGI: > 100 µM
SR leukemia
  TGI: > 100 µM
SW-620 colon
  TGI: > 100 µM
T-47D breast
  TGI: > 100 µM
TK-10 renal
  TGI: > 100 µM
U251 CNS
  TGI: > 100 µM
UACC-257 melanoma
  TGI: 37.1 µM
UACC-62 melanoma
  TGI: > 100 µM
UO-31 renal
  TGI: > 100 µM

## COC(=O)c1nc2c(C)c(O)c(Oc3c(C)c(O)c(O)c([C@H](C)CCC=C(C)C)c3O)c([C@H](C)CCC=C(C)C)c2o1
786-0 renal
  outcome: inactive
A498 renal
  outcome: inactive
A549 NSCLC
  outcome: inactive
ACHN renal
  outcome: inactive
BT-549 breast
  outcome: inactive
CAKI-1 renal
  outcome: inactive
CCRF-CEM leukemia
  outcome: inactive
COLO 205 colon
  outcome: inactive
DU-145 prostate
  outcome: inactive
EKVX NSCLC
  outcome: inactive
HCC-2998 colon
  outcome: inactive
HCT-116 colon
  outcome: inactive
HCT-15 colon
  outcome: inactive
HL-60(TB) leukemia
  outcome: inactive
HOP-92 NSCLC
  outcome: inactive
HS 578T breast
  outcome: inactive
HT29 colon
  outcome: inactive
IGROV1 ovarian
  outcome: inactive
K-562 leukemia
  outcome: inactive
KM12 colon
  outcome: inactive
LOX IMVI melanoma
  outcome: inactive
M14 melanoma
  outcome: inactive
MALME-3M melanoma
  outcome: inactive
MCF7 breast
  outcome: inactive
MDA-MB-435
  outcome: inactive
MDA-N
  outcome: inactive
MOLT-4 leukemia
  outcome: inactive
NCI-H226 lung
  outcome: inactive
NCI-H23 lung
  outcome: inactive
NCI-H460 lung
  outcome: inactive
NCI/ADR-RES ovarian
  outcome: inactive
OVCAR-3 ovarian
  outcome: inactive
OVCAR-4 ovarian
  outcome: inactive
OVCAR-5 ovarian
  outcome: inactive
OVCAR-8 ovarian
  outcome: inactive
PC-3 prostate
  outcome: inactive
RPMI-8226 leukemia
  outcome: inactive
SF-268 CNS
  outcome: inactive
SF-295 CNS
  outcome: inactive
SF-539 CNS
  outcome: inactive
SK-MEL-2 melanoma
  outcome: inactive
SK-MEL-28 melanoma
  outcome: inactive
SK-OV-3 ovarian
  outcome: inactive
SN12C renal
  outcome: inactive
SNB-19 CNS
  outcome: inactive
SNB-75 CNS
  outcome: inactive
SR leukemia
  outcome: inactive
SW-620 colon
  outcome: inactive
T-47D breast
  outcome: inactive
TK-10 renal
  outcome: inactive
UACC-257 melanoma
  outcome: inactive
UO-31 renal
  outcome: inactive
